In patent US20140004209A1, “AUTOPHAGY INDUCER AND INHIBITOR COMBINATION THERAPY FOR THE TREATMENT OF NEOPLASMS” (GENENTECH, INC., priority 2010, published 2014):
“Also recorded” adds a separate entry of the source. Like-named read-outs stand apart in the source and are kept apart here.

What was measured:
PC3 cells [1] = experiment: Mitochondrial superoxide (MitoSOX red) and cellular ROS in PC3 cells; assay type: cell-based, human
Experimental: (B) PC3 cells treated as in A were stained with the Image-iT LIVE green ROS Detection kit and examined by fluorescence microscopy at 24 h. […] (C) Quantification of MitoSOX red and ROS green fluorescence intensities by flow cytometry at 24 h. Cells were treated as in A and B. Error bars represent SEM (n=3).
Because mitochondria are the primary intracellular source of superoxide (O2^−) generation, we analyzed O2^− production using MitoSOX red, an O2^− indicator that accumulates in the mitochondria as a function of membrane potential and fluoresces upon oxidation and subsequent binding to DNA.

PC3 cells [2] = experiment: PC3 cell viability and cell death (PI exclusion, annexin V, caspase-3/7); assay type: cell-based, human; conditions: 4 μM II-4, 10 μM CQ, 0.5% FBS, 10 d
PTEN−/− and PTEN+/+ MEFs = experiment: Viability of PTEN−/− and PTEN+/+ MEFs (PI exclusion); assay type: cell-based, mouse; conditions: 5 μM each, 1% FBS
Experimental: MEFs were treated with 5 μM each of II-4 and CQ under 1% FBS, and cell viability was determined at days 0, 2, and 3 by PI exclusion. Error bars represent SEM (n=3). (B) Mean tumor volumes of PC3 xenograft tumors treated daily with vehicle (Veh), Dox only, CQ only, or both Dox and CQ over a 28-d period. The vehicle and vehicle+CQ groups were followed for up to 18 d before terminated because of weight loss from the tumor burdens. Error bars represent SEM (n=10 tumors in each cohort). (C) Scatterplot of the tumor volumes in the Dox only and Dox+CQ groups on day 28 (P=0.05). Horizontal bars indicate mean tumor volumes. Numbers of tumors with complete remission (CR, dashed line) are indicated for each group. […]
Cell viability and cell cycle analysis. Cell number and viability was measured using trypan blue exclusion assay using a Vi-Cell Analyzer (Beckman Coulter), or labeled with 1 μg/ml PI in PBS/1% BSA followed by cytofluorometric analysis with a fluorescence-activated cell sorter (FACS) (Becton Dickinson). […] Caspase activation was analyzed using a Caspase-Glo 3/7 Assay kit (Promega). For cell cycle analysis, cells were fixed with drop-wise addition of chilled 70% ethanol, washed with PBS and resuspended in staining solution containing 50 μg/ml PI and 60 units of RNAse A. DNA content was analyzed by flow cytometry using the FlowJo and ModFit software (Becton Dickinson).

PC3 cells [3] = experiment: Autophagy markers in PC3 cells (EM AVs, GFP-LC3, LC3-II/LC3-I, MDC, AO); assay type: cell-based, human
PC3 cells [4] = experiment: Time-lapse microscopy of PC3 cells; assay type: cell-based, human; conditions: 5% FBS
Experimental: Time-lapse video microscopy: Cells cultured in 24-well plates were imaged on an Olympus IX81 inverted microscope under environmental control (37° C. and 5% CO2) for 3 days. Imaging started 6 hours after the addition of the compounds and was taken at 1-hour intervals.

## O=c1[nH]c2ccccc2n1C1CCN(Cc2ccc(-c3nc4cc5nc[nH]c5cc4nc3-c3ccccc3)cc2)CC1 [II-4, 1-(1-(4-(7-phenyl-1H-imidazo[4,5-g]quinoxalin-6-yl)benzyl)piperidin-4-yl)-1H-benzo[d]imidazol-2 (3H)-one]
PC3 cells [1]
  MitoSOX fluorescence, agent alone: increased MitoSOX fluorescence within 6 h
  cellular ROS levels, II-4 (Akti-1/2) with CQ: cotreatment with CQ caused a prolonged increase in ROS levels
  cellular ROS signal, agent alone: attenuated within 48 h
PC3 cells [1]; 3 μM II-4, 10 μM CQ
  MitoSOX fluorescence, II-4 and CQ: significant increase in fluorescence intensity
PC3 cells [1]; listed as Akti-1/2
  cellular ROS levels, II-4 (Akti-1/2) with CQ: caused a prolonged increase in vacuolar fluorescence
  cellular ROS signal, agent alone: first induced a homogeneous increase in ROS level, but by 48 hours the fluorescence became significantly reduced
PC3 cells [2]
  cell viability, II-4 (Akti-1/2) in combination with CQ: CQ accelerated cell death in combination with II-4; also recorded: rapid drop in cell viability with complete cell death observed by day 10
PC3 cells [2]; listed as Akti-1/2
  cell viability, II-4 (Akti-1/2) in combination with CQ: significantly accelerated death rate
PTEN−/− and PTEN+/+ MEFs
  sensitivity of PTEN−/− vs PTEN+/+ MEFs to combined II-4 and CQ: significantly more sensitive
PC3 cells [3]
  AVO accumulation and apoptotic nuclei, II-4 and CQ (multispectral imaging flow cytometry): further increase in AVO accumulation in live cells and a concomitant increase in cells with condensed apoptotic nuclei
  AVO accumulation, agent alone (multispectral imaging flow cytometry): induced AVO accumulation without significant loss of viability
PC3 cells [3]; 5 μM Akti-1/2, 10 μM CQ, 0.5% FBS
  AVs and nuclei by EM, Akti-1/2 and CQ: accumulation of larger AVs and the appearance apoptotic nuclei
PC3 cells [3]; II-4 alone
  accumulation of LC3-II: significant accumulation of LC3-II within 24 h
PC3 cells [3]; II-4 and 10 μM CQ
  accumulation of LC3-II, with CQ cotreatment: further enhanced upon CQ cotreatment
PC3 cells [3]; listed as Akti-1/2
  induction of AV accumulation / autophagy, agent alone: induced overt autophagy; also recorded: induced accumulation of AVs
PC3 cells [4]; 10 μM II-4, 10 μM CQ
  cell morphology, II-4 and CQ: cell shrinkage and plasma membrane rupture was observed within 48 h
PC3 cells [4]; 10 μM, 3 d
  cell division and morphology, agent alone: near-complete inhibition of cell division without overt cell death
